Assay results from PubChem BioAssay AID330 (DTP/NCI, 2004).
Several values for one entry are separate records, joined by “and”; a condition that tells them apart may be missing. Equal entries are not always repeated. Toxic doses and inconclusive results are not listed. Rule for the calls: active = survival T/C of 150% or more; inactive = T/C below 125% in these data.

Tested on: P388 leukemia ip, CD2F1 mice, survival T/C
Assay: NCI In Vivo Anticancer Drug Screen. Data for tumor model P388 Leukemia (intraperitoneal) in CD2F1 (CDF1) mice
Details: endpoint: median survival time, higher = longer survival
How it was run: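 Mice carrying the transplanted tumor received test compound or vehicle. Survival was recorded in each group, and the value is the treated-group measurement divided by that of the vehicle-treated control group.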

[1] = dose: 50.0 mg/kg/injection, schedule: Q01DX005 (ip), vehicle: saline with Tween-80
[2] = dose: 100.0 mg/kg/injection, schedule: Q01DX005 (ip), vehicle: saline with Tween-80
[3] = dose: 200.0 mg/kg/injection, schedule: Q01DX005 (ip), vehicle: saline with Tween-80
[4] = dose: 25.0 mg/kg/injection, schedule: Q01DX009 (ip), vehicle: Klucel (hydroxypropylcellulose) (HPC)
[5] = dose: 50.0 mg/kg/injection, schedule: Q01DX009 (ip), vehicle: Klucel (hydroxypropylcellulose) (HPC)
[6] = dose: 100.0 mg/kg/injection, schedule: Q01DX009 (ip), vehicle: Klucel (hydroxypropylcellulose) (HPC)
[7] = dose: 200.0 mg/kg/injection, schedule: Q01DX009 (ip), vehicle: Klucel (hydroxypropylcellulose) (HPC)
[8] = dose: 100.0 mg/kg/injection, schedule: Q01DX009 (ip), vehicle: saline with Tween-80
[9] = dose: 200.0 mg/kg/injection, schedule: Q01DX009 (ip), vehicle: saline with Tween-80

Measured: T/C

Cc1cc(OC(=O)N2CCCCC2)c(C(C)C)cc1[N+](C)(C)C
inactive: dose: 0.02 mg/kg/injection, schedule: Q01DX009 (ip), vehicle: saline 100 % of control | dose: 0.03 mg/kg/injection, schedule: Q01DX009 (ip), vehicle: saline 100 % of control | dose: 0.06 mg/kg/injection, schedule: Q01DX009 (ip), vehicle: saline 90 % of control

CN(C)[C@@H]1C(=O)C(C(=O)NCNC2(C(=O)O)CCCC2)=C(O)[C@@]2(O)C(=O)C3=C(O)c4c(O)cccc4[C@@](C)(O)[C@H]3C[C@@H]12
inactive: dose: 50.0 mg/kg/injection, schedule: Q01DX009 (ip), vehicle: saline 103 % of control | dose: 100.0 mg/kg/injection, schedule: Q01DX009 (ip), vehicle: saline 95 % of control | dose: 100.0 mg/kg/injection, schedule: Q01DX009 (ip), vehicle: suspension in saline 91 % of control | dose: 200.0 mg/kg/injection, schedule: Q01DX009 (ip), vehicle: saline 106 % of control | dose: 200.0 mg/kg/injection, schedule: Q01DX009 (ip), vehicle: suspension in saline 93 % of control | dose: 400.0 mg/kg/injection, schedule: Q01DX009 (ip), vehicle: saline 98 % of control | dose: 400.0 mg/kg/injection, schedule: Q01DX009 (ip), vehicle: suspension in saline 111 % of control

NC(CS)C(=O)NCC(=O)O (centres undefined)
inactive: dose: 50.0 mg/kg/injection, schedule: Q01DX009 (ip), vehicle: distilled water + alcohol 109 % of control | dose: 100.0 mg/kg/injection, schedule: Q01DX009 (ip), vehicle: distilled water + alcohol 98 % of control | dose: 200.0 mg/kg/injection, schedule: Q01DX009 (ip), vehicle: distilled water + alcohol 92 % of control

Cc1cc(OCC(=O)N/N=C/c2ccc(N(CCCl)CCCl)cc2)c2c(=O)c3ccccc3oc2c1
inactive: dose: 60.0 mg/kg/injection, schedule: Q01DX005 (ip), vehicle: Klucel (hydroxypropylcellulose) (HPC) 94 % of control | dose: 120.0 mg/kg/injection, schedule: Q01DX005 (ip), vehicle: Klucel (hydroxypropylcellulose) (HPC) 117 % of control | dose: 240.0 mg/kg/injection, schedule: Q01DX005 (ip), vehicle: Klucel (hydroxypropylcellulose) (HPC) 88 % of control

COC(=O)COC(=O)C1C(C(N)=O)N(CC(=O)OC)CCN1CC(=O)OC (centres undefined)
inactive: [1] 103 % of control | [2] 103 % of control | [3] 103 % of control

S=C(C(=S)N1CCOCC1)N1CCOCC1
inactive: [4] 110 % of control | dose: 50.0 mg/kg/injection, schedule: Q01DX001 (ip), vehicle: saline 100 % of control | [5] 99 % of control and 101 % of control and 112 % of control | dose: 100.0 mg/kg/injection, schedule: Q01DX001 (ip), vehicle: saline 107 % of control | [6] 101 % of control and 114 % of control | dose: 200.0 mg/kg/injection, schedule: Q01DX001 (ip), vehicle: saline 112 % of control | [7] 103 % of control and 110 % of control and 123 % of control

COCNC(=S)c1ccc(C(N)=O)nc1C(=O)NC(C)(C)C
inactive: [1] 98 % of control | [2] 100 % of control | [3] 99 % of control

CC1(C)OC(CC(=O)O)C23COC(C(=O)C4(C)C2CCC2(C)C(C5CCOC5)OC(=O)C5OC524)C13 (centres undefined)
inactive: dose: 0.5 mg/kg/injection, schedule: Q01DX009 (ip), vehicle: saline + alcohol 103 % of control | dose: 1.0 mg/kg/injection, schedule: Q01DX009 (ip), vehicle: saline + alcohol 101 % of control | dose: 2.0 mg/kg/injection, schedule: Q01DX009 (ip), vehicle: saline + alcohol 100 % of control | dose: 4.0 mg/kg/injection, schedule: Q01DX009 (ip), vehicle: saline + alcohol 103 % of control

CCC(C)NCC/C(=C\[Si](C)(C)C)c1ccccc1 (centres undefined)
inactive: dose: 100.0 mg/kg/injection, schedule: Q01DX001 (ip), vehicle: saline with Tween-80 100 % of control | dose: 200.0 mg/kg/injection, schedule: Q01DX001 (ip), vehicle: saline with Tween-80 106 % of control

COc1ccc(S(=O)(=O)N/N=C\c2cc([N+](=O)[O-])ccc2O)c(OC)c1OC
inactive: [1] 107 % of control | [2] 101 % of control | [3] 94 % of control

COc1cc(Br)cc(/C=C(\C)[N+](=O)[O-])c1O
inactive: dose: 12.5 mg/kg/injection, schedule: Q04DX003 (ip), vehicle: saline 101 % of control | dose: 25.0 mg/kg/injection, schedule: Q04DX003 (ip), vehicle: saline 99 % of control and 108 % of control | dose: 50.0 mg/kg/injection, schedule: Q04DX003 (ip), vehicle: saline 104 % of control and 110 % of control | dose: 100.0 mg/kg/injection, schedule: Q04DX003 (ip), vehicle: saline 104 % of control

O=C(Nc1ccccc1)OCC(Cl)(Cl)Cl
inactive: [8] 100 % of control | [9] 100 % of control | dose: 400.0 mg/kg/injection, schedule: Q01DX009 (ip), vehicle: saline with Tween-80 119 % of control

S=C1CC(c2ccc(Sc3ccccc3)cc2)=Nc2ccccc2N1
inactive: [4] 90 % of control | [5] 90 % of control | [6] 99 % of control and 87 % of control | [7] 100 % of control

C/C(=N\NC(=S)N1CCC1)c1ccccn1
inactive: dose: 1.56 mg/kg/injection, schedule: Q01DX005 (ip), vehicle: other 99 % of control | dose: 3.12 mg/kg/injection, schedule: Q01DX005 (ip), vehicle: other 103 % of control | dose: 6.25 mg/kg/injection, schedule: Q01DX005 (ip), vehicle: other 99 % of control | dose: 6.25 mg/kg/injection, schedule: Q01DX009 (ip), vehicle: saline with Tween-80 95 % of control | dose: 12.5 mg/kg/injection, schedule: Q01DX005 (ip), vehicle: other 94 % of control | dose: 12.5 mg/kg/injection, schedule: Q01DX009 (ip), vehicle: saline with Tween-80 99 % of control | dose: 25.0 mg/kg/injection, schedule: Q01DX005 (ip), vehicle: other 100 % of control

CC(=O)/C=N/OC(=O)c1ccccc1
inactive: dose: 100.0 mg/kg/injection, schedule: Q04DX002 (ip), vehicle: saline with Tween-80 104 % of control | dose: 200.0 mg/kg/injection, schedule: Q04DX002 (ip), vehicle: saline with Tween-80 99 % of control

C=CCCCn1nc(-c2ccccc2)c(-c2ccccc2)n1
inactive: dose: 50.0 mg/kg/injection, schedule: Q01DX009 (ip), vehicle: saline with Tween-80 106 % of control | [8] 100 % of control | [9] 103 % of control

[O-][n+]1c2ccccc2[n+]([O-])c2c3ccccc3[nH]c21
inactive: [1] 95 % of control | [2] 95 % of control | [3] 88 % of control

O=NNc1c2ccccc2nc2ccccc12
inactive: dose: 0.09 mg/kg/injection, schedule: Q01DX009 (ip), vehicle: water 99 % of control | dose: 0.18 mg/kg/injection, schedule: Q01DX009 (ip), vehicle: water 95 % of control | dose: 0.37 mg/kg/injection, schedule: Q01DX009 (ip), vehicle: water 101 % of control | dose: 0.75 mg/kg/injection, schedule: Q01DX009 (ip), vehicle: water 104 % of control | dose: 1.5 mg/kg/injection, schedule: Q01DX009 (ip), vehicle: water 86 % of control
